Results as given in patent US6004982A, “4-piperidinyl) H-2-benzopyran derivatives useful as antipsychotic agents” (Hoechst Marion Roussel, Inc., priority 1998, dated 1999).
Counter-ions that a name gives are not always drawn.

target: T1, human dopamine D2L receptor (Human D2Long Receptors) (Homo sapiens, UniProt P14416); assay: Human dopamine D2L receptor binding assay ([3H]N-methyl spiroperidol displacement); settings: not given
T1 construct: expressed in transfected cells
Description: A single high expressing clonal cell line was isolated and membranes from this cell line were used for receptor binding assays. […] The incubation buffer contained: 50 mM Tris, 120 mM NaCl; 5 mM Kcl; 2 mM CaCl2; 1 mM MgCl2; pH 7.7). […] Incubations were performed at 37° C. in a shaking water bath for 30 min, terminated by rapid filtration through Whatman GF/B filters (presoaked in 0.3% polyethyleneimine), and counted in a liquid scintillation counter. Non-specific binding was defined as that remaining in the presence of 3 μM eticlopride. […] The percent inhibition at each drug concentration was the average of duplicate determinations. […] Cheng-Prisoff determination (Ki's) are performed using Prism software.

T1 sequence (P14416 whole entry): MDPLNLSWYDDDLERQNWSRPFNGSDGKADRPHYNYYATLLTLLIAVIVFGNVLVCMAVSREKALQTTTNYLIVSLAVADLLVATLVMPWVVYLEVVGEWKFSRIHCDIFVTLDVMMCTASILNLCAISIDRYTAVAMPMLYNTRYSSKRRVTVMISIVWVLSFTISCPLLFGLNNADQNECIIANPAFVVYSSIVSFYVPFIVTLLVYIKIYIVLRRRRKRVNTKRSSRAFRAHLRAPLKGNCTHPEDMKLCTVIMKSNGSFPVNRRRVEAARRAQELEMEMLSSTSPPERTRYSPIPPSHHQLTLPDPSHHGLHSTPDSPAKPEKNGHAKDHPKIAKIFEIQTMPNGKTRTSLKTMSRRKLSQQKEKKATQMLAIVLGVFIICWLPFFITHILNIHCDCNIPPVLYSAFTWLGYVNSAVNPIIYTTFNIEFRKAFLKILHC

Structure (SMILES)	Ki
O=CNC[C@@H]1O[C@H](C2CCN(CCc3cccs3)CC2)Cc2c1ccc1c2OC2(CCCCC2)O1 (relative stereo) [Example 24, cis-N-[5,6-(cyclohexylidinedioxy)-3,4-dihydro-3-[1(2-(thiophen-2-yl)ethyl)-4-piperidinyl]-1H-2-benzofuran-1-ylmethyl]formamide]	506 nM
COc1cc(C(C)=O)ccc1OCCCN1CCC([C@@H]2Cc3c(ccc4c3OC3(CCCCC3)O4)[C@H](CNC=O)O2)CC1 (relative stereo) [Example 30, cis-N-[3-[1-[3-(4-acetyl-2-methoxyphenoxy)propyl]-4-piperidinyl]-5,6-(cyclohexylidenedioxy)-3,4-dihydro-1H-2-benzopyran-1-ylmethyl]formamide oxalate Trihydrate]	857 nM

same assay, conditions: Table 2; [3H]N-methyl spiroperidol 0.4 nM; CHO membranes; 37° C., 30 min; pH 7.7; read-out: Ki

Structure (SMILES)	Ki
NC[C@@H]1O[C@H](C2CCN(CCc3ccccc3)CC2)Cc2c1ccc(O)c2O (relative stereo) [Example 4D, cis-1-(Aminomethyl)-3,4-dihydro-3-[1-(2-phenylethyl)-4-piperidinyl]-1H-2-benzopyran-5,6-diol Dihydrobromide Sesquihydrate]	1090 nM
COc1ccc(CCN2CCC([C@@H]3Cc4c(ccc(O)c4O)[C@H](CN)O3)CC2)cc1 (relative stereo) [Example 11, cis-1-(Aminomethyl)-3,4-dihydro-3-[1-[2-(4-methoxyphenyl)ethyl]-4-piperidinyl]-1H-2-benzopyran-5,6-diol Dihydrochloride]	1200 nM
NC[C@@H]1O[C@H](C2CCN(CCc3ccc(Cl)cc3)CC2)Cc2c1ccc(O)c2O (relative stereo) [Example 14, cis-1-(Aminomethyl)-3-[1-[2-(4-chlorophenyl)ethyl]-3,4-dihydro-4-piperidinyl]-1H-2-benzopyran-5,6-diol dihydrochloride]	505 nM
CNC[C@@H]1O[C@H](C2CCN(CCc3ccc(Cl)cc3)CC2)Cc2c1ccc(O)c2O (relative stereo) [Example 15, cis-3-[1-[2-(4-Chlorophenyl)ethyl]-4-piperidinyl]-3,4-dihydro-1-(N-methylaminomethyl)-1H-2-benzopyran-5,6-diol dihydrochloride hemihydrate]	413 nM

Continued, values first:

Ki	Structure (SMILES)
500 nM	NC[C@@H]1O[C@H](C2CCN(CCOc3ccccc3)CC2)Cc2c1ccc(O)c2O (relative stereo) [Example 23, cis-1-(Aminomethyl)-3,4-dihydro-3-[1(2-phenoxyethyl)-4-piperidinyl]-1H-2-benzopyran-5,6-diol dihydrochloride 0.4 hydrate]
91.8 nM	NC[C@@H]1O[C@H](C2CCN(CCCC(c3ccc(F)cc3)c3ccc(F)cc3)CC2)Cc2c1ccc(O)c2O (relative stereo) [Example 29, cis-1-(Aminomethyl)3-[1-[4,4-bis-(4-fluorophenyl)butyl]-4-piperidinyl]-1H-2-benzopyran-5,6-diol Dihydrochloride Dihydrate]
1100 nM	COc1cc(C(C)=O)ccc1OCCCN1CCC([C@@H]2Cc3c(ccc(O)c3O)[C@H](CN)O2)CC1 (relative stereo) [Example 31, cis-1-(3-[3-[4-[1-(Aminomethyl)-3,4-dihydro-5,6-dihydroxy-1H-2-benzopyran-3-yl]-1-piperidinyl]propoxy]-3-methoxyphenyl)ethanone Dihydrochloride Dihydrate]
3900 nM	NC[C@@H]1O[C@H](C2CCNCC2)Cc2c1ccc(O)c2O (relative stereo) [Example 33, cis-1-(Aminomethyl)-3,4-dihydro-3-(4-piperidinyl)-1H-2-benzopyran-5,6-diolDihydrochloride 0.3 Hydrate]
432 nM	NC[C@@H]1O[C@H](C2CCN(CCCn3c(=O)[nH]c4ccccc43)CC2)Cc2c1ccc(O)c2O (relative stereo) [Example 34, cis-1-[3-[4-(1-Aminomethyl-3,4-dihydro-5,6-dihydroxy-1H-2-benzopyran-3-yl)-1-piperidinyl]propyl]-1,3-dihydrobenzimidazol-2-one Dihydrochloride 1.33 Hydrate]
153 nM	NC[C@@H]1O[C@H](C2CCN(CCCC(c3ccc(F)cc3)c3ccc(F)cc3)CC2)Cc2c1ccc1c2OC2(CCCCC2)O1 (relative stereo) [Example 39, cis-1-Aminomethyl-5,6-(cyclohexylidenedioxy)-3,4-dihydro-3-[1-[4,4-bis(4-fluorophenyl)butyl]-4-piperidinyl]-1H-2-benzopyran Dioxalate 2.4 Hydrate]

tested on: apomorphine-induced climbing in CD-1 male mice; assay: Climbing mouse assay (CMA), antagonism of apomorphine-induced climbing; type: in vivo; settings: ip, Table I, compounds of the invention, i.p. 30 min before apomorphine 1.5 mg/kg s.c.
Description: CLIMBING MOUSE ASSAY (CMA)
This test may be used as to identify compounds useful in treating psychosis. Costall, B. et al, Eur. J. Pharm. 50: 39-50 (1978); Protais, P., et al., Psychopharmacology 50:1-6 (1976). […] This effect of apomorphine is antagonized by the D2 receptor antagonist.
CD-1 male mice (20-30 grams) are assigned to groups of 8 and individually placed in wire mesh stick cages and allowed one hour for adaptation to new environment. Apomorphine is injected at 1.5 mg/kg subcutaneously which is a dose which causes climbing in all subjects for thirty minutes. Test compounds are administered intraperitoneally thirty minutes prior to the apomorphine administration at a dose of 20 mg/kg.
For evaluation of climbing, three readings are taken at ten, twenty and thirty minutes after apomorphine administration according to the following scale:
4 paws on bottom (no climbing) 0
2 paws on the wall (rearing) 1
4 paws on the wall (full climb) 2
The climbing scores are individually totaled (maximal score: 6 per mouse over three readings) and total score of the control (vehicle intraperitoneally (ip) and apomorphine subcutaneous) is set to 100%. ED50 values with 95% confidence limits calculated by a linear regression analysis of some of the compounds of the present invention as well as a standard antipsychotic agent (clozapine) are presented in Table 1.

Structure (SMILES)	ED50
NC[C@@H]1O[C@H](C2CCN(CCc3ccccc3)CC2)Cc2c1ccc(O)c2O (relative stereo) [Example 4D, cis-1-(Aminomethyl)-3,4-dihydro-3-[1-(2-phenylethyl)-4-piperidinyl]-1H-2-benzopyran-5,6-diol Dihydrobromide Sesquihydrate]	8.1 mg/kg
